For orientation: IC50 means the concentration that gives 50% inhibition.

Counter-ions that a name gives are not always drawn.

In this assay the target is T1, IgE-Tb / soluble IgE receptor FcεRIα with a Y131A mutation (Homo sapiens, UniProt P01854, N146Q/N252Q).
T1 construct: fused on or other part: Terbium chelate (LanthaScreen amine-reactive) on IgE-Fc; Alexa Fluor 488 hydrazide on the oxidised glycans of sFcεRIα; Both are labels and no part of the key
T1 sequence (P01854 104-427 N146Q/N252Q): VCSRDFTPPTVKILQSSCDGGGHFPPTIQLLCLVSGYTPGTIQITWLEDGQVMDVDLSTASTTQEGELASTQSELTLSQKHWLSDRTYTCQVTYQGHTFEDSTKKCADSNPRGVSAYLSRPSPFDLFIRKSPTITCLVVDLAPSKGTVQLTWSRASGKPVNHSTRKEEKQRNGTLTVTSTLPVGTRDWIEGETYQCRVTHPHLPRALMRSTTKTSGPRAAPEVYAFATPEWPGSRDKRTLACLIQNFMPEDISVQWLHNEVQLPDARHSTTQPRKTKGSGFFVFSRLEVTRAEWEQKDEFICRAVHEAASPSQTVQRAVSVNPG
T1 sequence (P12319 26-201 Y156A partner): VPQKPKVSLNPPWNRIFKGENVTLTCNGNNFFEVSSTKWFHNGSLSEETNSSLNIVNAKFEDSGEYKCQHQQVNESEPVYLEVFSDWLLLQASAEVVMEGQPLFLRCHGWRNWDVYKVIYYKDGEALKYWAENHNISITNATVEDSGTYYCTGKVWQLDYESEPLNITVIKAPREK
Briefly: in vitro FRET assay: binding of IgE-Tb to receptor FcεRIα-Y131A-AF488 and its inhibition by compounds. The note with it: 5 nM IgE-Tb, 25 nM FcεRIα-Y131A-AF488, 2 hours at room temperature; read-out: FRET IC50 range.
For the compound `CC(C)CNS(=O)(=O)N1Cc2cc3cnc(C4CC4)cc3c(S(=O)(=O)NCC(C)(C)F)c2C1` [Example 99, 7-cyclopropyl-9-N-(2-fluoro-2-methylpropyl)-2-N-(2-methylpropyl)-1,3-dihydropyrrolo[3,4-g]isoquinoline-2,9-disulfonamide], the IC50 fell in the range of 0.1 to 2 µM.

With `CC(C)(F)CNS(=O)(=O)c1c2c(cc3cnc(C4CC4)cc13)C[C@@H](NC(=O)c1n[nH]c3cc(Br)ccc13)C2` [Example 141, 6-bromo-N-[(7R)-3-cyclopropyl-5-[(2-fluoro-2-methylpropyl)sulfamoyl]-7,8-dihydro-6H-cyclopenta[g]isoquinolin-7-yl]-1H-indazole-3-carboxamide], the half-inhibitory concentration (IC50) fell in the range of 0.1 to 2 µM.

Turning to `CC(C)(F)CNS(=O)(=O)c1c2c(cc3cnc(C4CC4)cc13)C[C@@H](Nc1cncnc1OC1CCOCC1)C2` [Example 120, (7R)-3-cyclopropyl-N-(2-fluoro-2-methylpropyl)-7-[[4-(oxan-4-yloxy)pyrimidin-5-yl]amino]-7,8-dihydro-6H-cyclopenta[g]isoquinoline-5-sulfonamide], the IC50 lay in the range of 0.05 to 0.1 µM.

For the compound `CCOC(=O)c1nnc(N[C@@H]2Cc3cc4cnc(C5CC5)cc4c(S(=O)(=O)NCC(C)(C)F)c3C2)s1` [Example 64, ethyl 5-[[(7R)-3-cyclopropyl-5-[(2-fluoro-2-methylpropyl)sulfamoyl]-7,8-dihydro-6H-cyclopenta[g]isoquinolin-7-yl]amino]-1,3,4-thiadiazole-2-carboxylate], the IC50 was 0.01 to 0.05 µM.

Regarding `CC(C)CNS(=O)(=O)c1c2c(cc3cnc(C4CC4)cc13)CC(C(=O)NCC(C)(C)C)C2` (stereo not drawn) [Example 54, 3-cyclopropyl-N-(2,2-dimethylpropyl)-5-(2-methylpropylsulfamoyl)-7,8-dihydro-6H-cyclopenta[g]isoquinoline-7-carboxamide], the IC50 fell in the range of 0.01 to 0.05 µM.

As for `COC(=O)c1ccc(NC2Cc3cc4c(F)nc(C5CC5)cc4c(S(=O)(=O)NCC(C)(C)F)c3C2)cn1` (stereo not drawn) [Example 24, methyl 5-[[3-cyclopropyl-1-fluoro-5-[(2-fluoro-2-methyl-propyl)sulfamoyl]-7,8-dihydro-6H-cyclopenta[g]isoquinolin-7-yl]amino]pyridine-2-carboxylate], the IC50 fell in the range of 0.01 to 0.05 µM.

Consider `CC(C)(F)CNS(=O)(=O)c1c2c(cc3cnc(C4CC4)cc13)C[C@@H](Nc1ccc(C3(O)COC3)nc1)C2` [Example 38, (7R)-3-cyclopropyl-N-(2-fluoro-2-methylpropyl)-7-[[6-(3-hydroxyoxetan-3-yl)pyridin-3-yl]amino]-7,8-dihydro-6H-cyclopenta[g]isoquinoline-5-sulfonamide], for which the IC50 was 0.01 to 0.05 µM.

As to `CC(C)(F)CNS(=O)(=O)c1c2c(cc3cnc(C4CC4)cc13)CC(NC1=CS(=O)(=O)CC1)C2` (stereo not drawn) [Example 40, 3-cyclopropyl-7-[(1,1-dioxo-2,3-dihydrothiophen-4-yl)amino]-N-(2-fluoro-2-methylpropyl)-7,8-dihydro-6H-cyclopenta[g]isoquinoline-5-sulfonamide], the 50% inhibitory concentration (IC50) was 0.1 to 2 µM.

Regarding `O=c1cc(C2Cc3cc4cnc(C5CC5)cc4c(S(=O)(=O)NC4CC(F)(F)C4)c3C2)[nH]n1-c1cccnc1` (stereo not drawn) [Example 111, 3-cyclopropyl-N-(3,3-difluorocyclobutyl)-7-(3-oxo-2-pyridin-3-yl-1H-pyrazol-5-yl)-7,8-dihydro-6H-cyclopenta[g]isoquinoline-5-sulfonamide], the IC50 is 0.1 to 2 µM.

Consider `CC(O)CNS(=O)(=O)c1c2c(cc3cnc(C4CC4)cc13)CCC2` (stereo not drawn) [Example 17, 3-cyclopropyl-N-(2-hydroxypropyl)-7,8-dihydro-6H-cyclopenta[g]isoquinoline-5-sulfonamide], for which the IC50 was 0.1 to 2 µM.

Regarding `CCNc1c(NC2Cc3cc4cnc(C5CC5)cc4c(S(=O)(=O)NCC(C)C)c3C2)c(=O)c1=O` (stereo not drawn) [Example 53, 3-cyclopropyl-7-[[2-(ethylamino)-3,4-dioxocyclobuten-1-yl]amino]-N-(2-methylpropyl)-7,8-dihydro-6H-cyclopenta[g]isoquinoline-5-sulfonamide], the IC50 lay within 0.01 to 0.05 µM.

Regarding `CC(C)(F)CNS(=O)(=O)c1c2c(cc3cnc(C4CC4)cc13)CC(c1nc3ccncc3[nH]1)C2` (stereo not drawn) [Example 56, 3-cyclopropyl-N-(2-fluoro-2-methylpropyl)-7-(3H-imidazo[4,5-c]pyridin-2-yl)-7,8-dihydro-6H-cyclopenta[g]isoquinoline-5-sulfonamide], the IC50 lay within 0.05 to 0.1 µM.

Take `Cn1nnc(-c2ccc(NC3Cc4cc5cnc(C6CC6)cc5c(S(=O)(=O)NCC5(F)COC5)c4C3)cn2)n1` (stereo not drawn) [Example 13, 3-cyclopropyl-N-[(3-fluorooxetan-3-yl)methyl]-7-[[6-(2-methyltetrazol-5-yl)pyridin-3-yl]amino]-7,8-dihydro-6H-cyclopenta[g]isoquinoline-5-sulfonamide]: the IC50 fell in the range of 0.01 to 0.05 µM.

For the compound `CC(C)(F)CNS(=O)(=O)c1c2c(cc3cnc(C4CC4)cc13)C[C@H](n1cnc(C(N)=O)c1N)C2` [Example 90, 5-amino-1-[(7S)-3-cyclopropyl-5-[(2-fluoro-2-methylpropyl)sulfamoyl]-7,8-dihydro-6H-cyclopenta[g]isoquinolin-7-yl]imidazole-4-carboxamide], the IC50 was in the range of 0.1 to 2 µM.

As to `CC(C)(F)CNS(=O)(=O)c1c2c(cc3cnc(C4CC4)cc13)CC(Nc1cncc3[nH]ncc13)C2` (stereo not drawn) [Example 83, 3-cyclopropyl-N-(2-fluoro-2-methyl-propyl)-7-(1H-pyrazolo[3,4-c]pyridin-4-ylamino)-7,8-dihydro-6H-cyclopenta[g]isoquinoline-5-sulfonamide, formate salt], the IC50 fell in the range of 0.01 to 0.05 µM.

As to `Cn1ccc(Oc2ccncc2N[C@@H]2Cc3cc4cnc(C5CC5)cc4c(S(=O)(=O)NCC(C)(C)F)c3C2)n1` [Example 128, (7R)-3-cyclopropyl-N-(2-fluoro-2-methylpropyl)-7-[[4-(1-methylpyrazol-3-yl)oxypyridin-3-yl]amino]-7,8-dihydro-6H-cyclopenta[g]isoquinoline-5-sulfonamide], the IC50 fell in the range of 0.05 to 0.1 µM.

`CC(C)(F)CNS(=O)(=O)c1c2c(cc3cnc(C4CC4)cc13)CN(C(=O)Cc1cccnc1)C2` [Example 72, 7-cyclopropyl-N-(2-fluoro-2-methylpropyl)-2-(2-pyridin-3-ylacetyl)-1,3-dihydropyrrolo[3,4-g]isoquinoline-9-sulfonamide]: the half-maximal inhibitory concentration (IC50) lay within 0.1 to 2 µM.

`CC(C)(F)CNS(=O)(=O)c1c2c(cc3cnc(C4CC4)cc13)CC(Nc1cncnc1Nc1cccnc1)C2` (stereo not drawn) [Example 18, 3-cyclopropyl-N-(2-fluoro-2-methylpropyl)-7-[[4-(pyridin-3-ylamino)pyrimidin-5-yl]amino]-7,8-dihydro-6H-cyclopenta[g]isoquinoline-5-sulfonamide]: the IC50 lay within 0.001 to 0.01 µM.

As to `CC(C)CNS(=O)(=O)c1c2c(c(N)c3cnc(C4CC4)cc13)CCC2` [Example 21, 9-amino-3-cyclopropyl-N-(2-methylpropyl)-7,8-dihydro-6H-cyclopenta[g]isoquinoline-5-sulfonamide], the IC50 fell in the range of 0.05 to 0.1 µM.

For `CC(=O)Nc1c2c(c(S(=O)(=O)NCC(C)C)c3cc(C4CC4)ncc13)CCC2` [Example 22, N-[3-cyclopropyl-5-(2-methylpropylsulfamoyl)-7,8-dihydro-6H-cyclopenta[g]isoquinolin-9-yl]acetamide], the IC50 lay in the range of 0.1 to 2 µM.

`CC(C)(F)CNS(=O)(=O)c1c2c(cc3cnc(C4CC4)cc13)C[C@@H](Nc1cnc(-c3nnn[nH]3)nc1)C2` [Example 124, (7R)-3-cyclopropyl-N-(2-fluoro-2-methylpropyl)-7-[[2-(1H-tetrazol-5-yl)pyrimidin-5-yl]amino]-7,8-dihydro-6H-cyclopenta[g]isoquinoline-5-sulfonamide]: the half-maximal inhibitory concentration (IC50) was in the range of 0.01 to 0.05 µM.

Regarding `CC(C)(F)CNS(=O)(=O)c1c2c(cc3cnc(C4CC4)cc13)CC(NC1=CC(=O)C1(C)C)C2` (stereo not drawn) [Example 98, 3-cyclopropyl-7-[(4,4-dimethyl-3-oxocyclobuten-1-yl)amino]-N-(2-fluoro-2-methylpropyl)-7,8-dihydro-6H-cyclopenta[g]isoquinoline-5-sulfonamide], the IC50 was in the range of 0.1 to 2 µM.

In the case of `Cn1nccc1C(=O)NC1Cc2cc3cnc(C4CC4)cc3c(S(=O)(=O)NCC(C)(C)F)c2C1` (stereo not drawn) [Example 104, N-[3-cyclopropyl-5-[(2-fluoro-2-methylpropyl)sulfamoyl]-7,8-dihydro-6H-cyclopenta[g]isoquinolin-7-yl]-2-methylpyrazole-3-carboxamide], the IC50 lay within 0.05 to 0.1 µM.

With `Cc1ccc2c(C(=O)N[C@@H]3Cc4cc5cnc(C6CC6)cc5c(S(=O)(=O)NCC(C)(C)F)c4C3)c[nH]c2c1` [Example 33, N-[(7R)-3-cyclopropyl-5-[(2-fluoro-2-methylpropyl)sulfamoyl]-7,8-dihydro-6H-cyclopenta[g]isoquinolin-7-yl]-6-methyl-1H-indole-3-carboxamide], the half-inhibitory concentration (IC50) fell in the range of 0.01 to 0.05 µM.

In the case of `O=C(O)c1ccc(NC2Cc3cc4cnc(C5CC5)cc4c(S(=O)(=O)NC4CC(F)(F)C4)c3C2)cn1` (stereo not drawn) [Example 89, 5-[[3-cyclopropyl-5-[(3,3-difluorocyclobutyl)sulfamoyl]-7,8-dihydro-6H-cyclopenta[g]isoquinolin-7-yl]amino]pyridine-2-carboxylic acid], the IC50 fell in the range of 0.1 to 2 µM.

On to `Cc1noc(-c2ccc(N[C@@H]3Cc4cc5cnc(C6CC6)cc5c(S(=O)(=O)NCC(C)(C)F)c4C3)cn2)n1` [Example 36, (7R)-3-cyclopropyl-N-(2-fluoro-2-methylpropyl)-7-[[6-(3-methyl-1,2,4-oxadiazol-5-yl)pyridin-3-yl]amino]-7,8-dihydro-6H-cyclopenta[g]isoquinoline-5-sulfonamide], for which the 50% inhibitory concentration (IC50) fell in the range of 0.001 to 0.01 µM.

Take `CC(C)(F)CNS(=O)(=O)c1c2c(cc3cnc(C4CC4)cc13)CC(NC1=CC(=O)OC1)C2` (stereo not drawn) [Example 142, 3-cyclopropyl-N-(2-fluoro-2-methylpropyl)-7-[(5-oxo-2H-furan-3-yl)amino]-7,8-dihydro-6H-cyclopenta[g]isoquinoline-5-sulfonamide]: the IC50 was 0.1 to 2 µM.

These data come from patent US12577228B2, “Dihydrocyclopenta-isoquinoline-sulfonamide derivatives compounds” (UCB Biopharma SRL, priority 2019, dated 2026).
